Laboratory results published in paper PMC4306533, “Distinct Features of Cap Binding by eIF4E1b Proteins” (Journal of Molecular Biology, 2015).
Where two headings read alike, the source gives them in different places.

Tests used:
XeIF4E1a [1] = biological target: T1, XeIF4E1a (Xenopus laevis, UniProt P48597); test: time-synchronized fluorescence titration of cap analogue binding; details: for Kas + glycerol XeIF4E1a / Kas − glycerol XeIF4E1a: equilibrium association constant; for Kas + glycerol XeIF4E1a / ΔΔG^o + glycerol XeIF4E1a: 10% glycerol; for Kas − glycerol XeIF4E1a: buffer without glycerol
T1 construct: made in house; host or cells: E. coli Rosetta2(DE3)
T1 sequence (P48597 whole entry): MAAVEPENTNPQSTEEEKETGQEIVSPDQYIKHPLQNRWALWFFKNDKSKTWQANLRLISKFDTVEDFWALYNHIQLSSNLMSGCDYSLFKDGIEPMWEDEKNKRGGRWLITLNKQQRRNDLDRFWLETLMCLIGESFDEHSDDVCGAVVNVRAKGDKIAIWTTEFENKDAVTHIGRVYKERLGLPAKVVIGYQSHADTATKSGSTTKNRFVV
From the text: (§1) The time-synchronized fluorescence titration method, widely used to determine the affinity constants of cap–eIF4E complexes [[20,22–26]], measures the quenching of the intrinsic fluorescence of tryptophan residues due to cap binding (Fig. S2). Knowledge of the equilibrium association constant Kas enables the calculation of the free-energy changes involved in the interaction between eIF4E and ligand, according to the standard equation ΔG° = − RTlnKas.
(§2) For human eIF4E1a and eIF4E1b and also for Xenopus eIF4E1a and its mutated forms, measurements were carried out using 0.1 μM protein in 50 mM Hepes/KOH (pH 7.2), 134.5 mM KCl, 0.5 mM EDTA and 1 mM DTT. For Xenopus eIF4E1b(ΔN27), the concentration was 0.2 μM and glycerol was added to the buffer to 10% (v/v) final concentration. […] Fluorescence of measured samples was excited at 280 nm (2.5 nm bandwidth) and detected at 337 nm or 330 nm (4 nm bandwidth), thus reducing the signal originated from the free cap analogues. Measurements were carried out on a LS-55 spectrofluorometer (Perkin Elmer Co.) using freshly prepared proteins, and the fluorescence intensities were corrected for sample dilution and the inner filter effect.
(§3) Equilibrium association constants (Kas) were determined by fitting the theoretical dependence of fluorescence intensity on the total concentration of the cap analogue to the experimental data points, according to the equation described previously (see Ref. [22] and Fig. S2c).
(§4) The final Kas was calculated as a weighted average of 2–6 independent titrations with the weights taken as the reciprocal of the numerical standard deviation squared. Numerical, nonlinear least-squares regression analysis was performed using Origin 6.0 (Microcal Software Inc.). Obtained association constants were used to determine the Gibbs free energy according to the standard equation ΔG° = − RTlnKas.

XeIF4E1a [2] = test: as above; design: species or system Xenopus laevis; details: without glycerol
From the text: as §1, §2, §3, §4

heIF4E1b [3] = biological target: T2, heIF4E1b (Homo sapiens, UniProt A6NMX2); test: as above; details: for Kas − glycerol heIF4E1b: equilibrium association constant, buffer without glycerol
T2 construct: made in house; host or cells: E. coli Rosetta2(DE3)
T2 sequence (A6NMX2 1-242): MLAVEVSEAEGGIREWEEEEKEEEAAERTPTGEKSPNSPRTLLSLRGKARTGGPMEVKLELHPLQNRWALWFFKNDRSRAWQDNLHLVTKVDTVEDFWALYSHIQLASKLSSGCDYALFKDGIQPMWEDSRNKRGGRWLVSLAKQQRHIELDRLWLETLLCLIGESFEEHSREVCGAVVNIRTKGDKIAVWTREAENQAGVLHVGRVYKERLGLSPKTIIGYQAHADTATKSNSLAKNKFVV
From the text: as §1, §2, §3, §4

heIF4E1b [4] = test: as above; design: species or system human; details: for Ratio Kas (h4E1a) to Kas (h4E1b): without glycerol
From the text: as §1, §2, §3, §4

heIF4E1a [5] = biological target: T3, heIF4E1a (Homo sapiens, UniProt P06730); design: method as in PMID 17369309; details: equilibrium association constant; buffer without glycerol; footnote b; cited from earlier work
T3 construct: made in house; host or cells: E. coli Rosetta2(DE3)
T3 sequence (P06730 whole entry): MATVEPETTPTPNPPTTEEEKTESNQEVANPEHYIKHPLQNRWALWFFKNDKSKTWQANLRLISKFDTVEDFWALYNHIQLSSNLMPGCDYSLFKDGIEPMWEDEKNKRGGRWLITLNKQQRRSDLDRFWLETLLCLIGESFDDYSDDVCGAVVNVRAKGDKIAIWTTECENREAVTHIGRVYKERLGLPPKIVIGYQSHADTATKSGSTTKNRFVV

heIF4E1a [6] = biological target: T3, heIF4E1a; test: time-synchronized fluorescence titration of cap analogue binding
From the text: as §1, §2, §3, §4

XeIF4E1bΔN27 = test: as above; design: species or system Xenopus laevis; details: 10% glycerol
From the text: as §1, §2, §3, §4

X4E1a1 (E101S) = biological target: T4, X4E1a1 (E101S) (Xenopus laevis, UniProt P48597, E101S); test: fluorescence titration, XeIF4E1a mutant; assay type: binding; details: mutant (E101S) of XeIF4E1a
T4 construct: made in house; host or cells: E. coli Rosetta2(DE3)
T4 sequence (P48597 whole entry E101S): as the sequence (P48597 whole entry) above, with E101S counted along it
From the text: (§5) We tested the effect on cap-binding activity of these positions in the fluorescence assay with six mutated recombinant versions of Xenopus eIF4E1a (Fig. S4). The amino acids were introduced in XeIF4E1a sequentially in the order: E101S/K102R/S195A/M82S/T206L/T207S (numbering of the XeIF4E1a sequence is shifted backward by 4 amino acids relative to XeIF4E1b). […] The biggest contribution to the weaker cap binding of XeIF4E1a, in each case about 20%, resulted from changing Glu101 to Ser and Thr206 to Leu coupled with Thr207 to Ser, with the remaining mutations having only minor effects. […] Glu101 is a solvent-accessible amino acid and is proximal to Trp98 in the S3-S4 loop. […] Attenuation of the cap-binding affinity of XeIF4E1a resulting from mutating Thr206 and Thr207 is consistent with our results mentioned above showing significant influence of C-terminal loop residues on binding phosphate and the second nucleotide.
(§6) For human eIF4E1a and eIF4E1b and also for Xenopus eIF4E1a and its mutated forms, measurements were carried out using 0.1 μM protein in 50 mM Hepes/KOH (pH 7.2), 134.5 mM KCl, 0.5 mM EDTA and 1 mM DTT. For Xenopus eIF4E1b(ΔN27), the concentration was 0.2 μM and glycerol was added to the buffer to 10% (v/v) final concentration. […] The gradually increasing concentration of cap analogue quenches protein fluorescence without shifting the spectrum maximum, while at high concentrations, the fluorescence signal of free cap analogue dominates over the fluorescence from other solution components including free eIF4E and eIF4E in complex with cap (Fig. S2a). Fluorescence of measured samples was excited at 280 nm (2.5 nm bandwidth) and detected at 337 nm or 330 nm (4 nm bandwidth), thus reducing the signal originated from the free cap analogues. Measurements were carried out on a LS-55 spectrofluorometer (Perkin Elmer Co.) using freshly prepared proteins, and the fluorescence intensities were corrected for sample dilution and the inner filter effect.
(§7) Equilibrium association constants (Kas) were determined by fitting the theoretical dependence of fluorescence intensity on the total concentration of the cap analogue to the experimental data points, according to the equation described previously (see Ref. [22] and Fig. S2c). […] Along with Kas and the concentration of the active protein [P0^act], other parameters such as fL and ∆f = fPact − fPL are also gained from the fit, where fL represents the fluorescence efficiency of free cap analogue and ∆f represents the difference between the fluorescence efficiencies of the apo-protein and the complex (Fig. S2c).
as §4

X4E1a1’ (K102R) = biological target: T5, X4E1a1’ (K102R) (Xenopus laevis, UniProt P48597, K102R); test: fluorescence titration, XeIF4E1a mutant; assay type: binding; details: mutant (K102R) of XeIF4E1a
T5 construct: made in house; host or cells: E. coli Rosetta2(DE3)
T5 sequence (P48597 whole entry K102R): as the sequence (P48597 whole entry) above, with K102R counted along it
From the text: as §5, §6, §7, §4

X4E1a2 (E101S/K102R) = biological target: T6, X4E1a2 (E101S/K102R) (Xenopus laevis, UniProt P48597, E101S/K102R); test: fluorescence titration, XeIF4E1a mutant; assay type: binding; details: mutant (E101S/K102R) of XeIF4E1a
T6 construct: made in house; host or cells: E. coli Rosetta2(DE3)
T6 sequence (P48597 whole entry E101S/K102R): as the sequence (P48597 whole entry) above, with E101S, K102R counted along it
From the text: as §5, §6, §7, §4

[7] = biological target: T7, X4E1a3 (E101S/K102R/S195A) (Xenopus laevis, UniProt P48597, E101S/K102R/S195A); test: fluorescence titration, XeIF4E1a mutant; assay type: binding; details: mutant (E101S/K102R/S195A) of XeIF4E1a
T7 construct: made in house; host or cells: E. coli Rosetta2(DE3)
T7 sequence (P48597 whole entry E101S/K102R/S195A): as the sequence (P48597 whole entry) above, with E101S, K102R, S195A counted along it
From the text: as §5, §6, §7, §4

[8] = biological target: T8, X4E1a4 (E101S/K102R/S195A/M82S) (Xenopus laevis, UniProt P48597, E101S/K102R/M82S/S195A); test: fluorescence titration, XeIF4E1a mutant; assay type: binding; details: mutant (E101S/K102R/S195A/M82S) of XeIF4E1a
T8 construct: made in house; host or cells: E. coli Rosetta2(DE3)
T8 sequence (P48597 whole entry M82S/E101S/K102R/S195A): as the sequence (P48597 whole entry) above, with M82S, E101S, K102R, S195A counted along it
From the text: as §5, §6, §7, §4

[9] = biological target: T9, X4E1a6 (E101S/K102R/S195A/M82S/T206L/T207S) (Xenopus laevis, UniProt P48597, E101S/K102R/M82S/S195A/T206L/T207S); test: fluorescence titration, XeIF4E1a mutant; assay type: binding; details: mutant (E101S/K102R/S195A/M82S/T206L/T207S) of XeIF4E1a
T9 construct: made in house; host or cells: E. coli Rosetta2(DE3)
T9 sequence (P48597 whole entry M82S/E101S/K102R/S195A/T206L/T207S): as the sequence (P48597 whole entry) above, with M82S, E101S, K102R, S195A, T206L, T207S counted along it
From the text: as §5, §6, §7, §4

[10] = change relative to m^7GTP, without glycerol

SMILES: Nc1nc2c(ncn2[C@@H]2O[C@H](COP(=O)(O)OP(=O)(O)OP(=O)(O)O)[C@@H](O)[C@H]2O)c(=O)[nH]1 [GTP, reference compound]
- Kas + glycerol XeIF4E1a (XeIF4E1a [1]): 0.055 ± 0.021 μM^− 1
- Kas − glycerol XeIF4E1a (XeIF4E1a [1]): 0.031 ± 0.006 μM^− 1
- Ratio Kas (h4E1a) to Kas (X4E1a) (XeIF4E1a [2]): 0.87
- Kas − glycerol heIF4E1b (heIF4E1b [3]): 0.159 ± 0.040 μM^− 1
- fold higher affinity of human eIF4E1b than eIF4E1a (heIF4E1b [4]; human proteins): approximately 5 fold
- Ratio Kas (h4E1a) to Kas (h4E1b) (heIF4E1b [4]): 0.17
- Kas − glycerol heIF4E1a (heIF4E1a [5]): 0.027 ± 0.001 ^b μM^− 1

SMILES: CN(C)c1nc2c(c(=O)[nH]1)[n+](C)cn2[C@@H]1O[C@H](COP(=O)(O)OP(=O)(O)OP(=O)(O)O)[C@@H](O)[C@H]1O [m^2,2,7GTP]
- ΔΔG^o + glycerol XeIF4E1a (XeIF4E1a [1]; change relative to m^7GTP): 2.844 ± 0.042 kcal/mol
- ΔΔG^o − glycerol XeIF4E1a (XeIF4E1a [1]; [10]): 2.897 ± 0.051 kcal/mol
- Kas + glycerol XeIF4E1a (XeIF4E1a [1]): 0.176 ± 0.011 μM^− 1
- Kas − glycerol XeIF4E1a (XeIF4E1a [1]): 0.295 ± 0.021 μM^− 1
- Ratio Kas (h4E1a) to Kas (X4E1a) (XeIF4E1a [2]): 1.22
- ΔΔG^o − glycerol heIF4E1a (heIF4E1a [6]; [10]): 3.052 ± 0.045 kcal/mol
- Kas − glycerol heIF4E1a (heIF4E1a [6]; equilibrium association constant, buffer without glycerol): 0.362 ± 0.008 μM^− 1
- ΔΔG^o − glycerol heIF4E1b (heIF4E1b [3]; [10]): 2.557 ± 0.041 kcal/mol
- Kas − glycerol heIF4E1b (heIF4E1b [3]): 0.272 ± 0.009 μM^− 1
- Ratio Kas (h4E1a) to Kas (h4E1b) (heIF4E1b [4]): 1.33
- Ratio Kas (X4E1a) to Kas (X4E1bΔN27) (XeIF4E1bΔN27): 0.70
- ΔΔG^o + glycerol XeIF4E1bΔN27 (XeIF4E1bΔN27; change relative to m^7GTP): 2.00 ± 0.11 kcal/mol
- Kas + glycerol XeIF4E1bΔN27 (XeIF4E1bΔN27; equilibrium association constant): 0.253 ± 0.046 μM^− 1
- Kas X4E1a1 (X4E1a1 (E101S)): 0.350 ± 0.015 µM⁻¹
- Kas X4E1a1’ (X4E1a1’ (K102R)): 0.268 ± 0.012 µM⁻¹
- Kas X4E1a2 (X4E1a2 (E101S/K102R)): 0.306 ± 0.046 µM⁻¹
- Kas X4E1a3 [7]: 0.193 ± 0.019 µM⁻¹
- Kas X4E1a4 [8]: 0.317 ± 0.054 µM⁻¹
- Kas X4E1a6 [9]: 0.185 ± 0.012 µM⁻¹

SMILES: COC1C(O)C(COP(=O)(O)OP(=O)(O)OP(=O)(O)OCC2OC(n3cnc4c(=O)[nH]c(N)nc43)C(O)C2O)OC1n1c[n+](C)c2c(=O)[nH]c(N)nc21 (stereo not shown) [m^7,2′-OGpppG]
- ΔΔG^o + glycerol XeIF4E1a (XeIF4E1a [1]; change relative to m^7Gp3G): 0.091 ± 0.074 kcal/mol
- Kas + glycerol XeIF4E1a (XeIF4E1a [1]): 1.96 ± 0.24 μM^− 1
- Kas − glycerol heIF4E1b (heIF4E1b [3]): 4.63 ± 0.12 μM^− 1
- Ratio Kas (h4E1a) to Kas (h4E1b) (heIF4E1b [4]): 1.32
- Kas − glycerol heIF4E1a (heIF4E1a [5]): 6.13 ± 0.34 ^b μM^− 1
